# Results from publication PMC8041284, “Tunable Methacrylamides for Covalent Ligand Directed Release Chemistry” (Journal of the American Chemical Society, 2021).
# Read-outs that look alike come from different tables or passages of the source.
# Tests used:
# [1] = biological target: wild-type BTK (Homo sapiens, UniProt Q06187); test: In vitro kinase activity assay (Nanosyn); details: BTK IC50, 0.6 nM BTK, 5 μM ATP; Figure 4C
# Procedure: Kinase reactions are assembled in 384-well plates (Greiner) in a total volume of 20 μL. Test compounds were diluted in DMSO to a final concentration, while the final concentration of DMSO in all assays was kept at 1%. The compounds were incubated with the kinases for 2 h. […] The reaction was initiated by 2-fold dilution into a solution containing 5 μM ATP and 1 μM substrate in the kinase buffer
# [2] = biological target: T1, BTK (Homo sapiens, UniProt Q06187); details: 10 µM, inhibitor
# T1 sequence (Q06187 402-655 limits assumed): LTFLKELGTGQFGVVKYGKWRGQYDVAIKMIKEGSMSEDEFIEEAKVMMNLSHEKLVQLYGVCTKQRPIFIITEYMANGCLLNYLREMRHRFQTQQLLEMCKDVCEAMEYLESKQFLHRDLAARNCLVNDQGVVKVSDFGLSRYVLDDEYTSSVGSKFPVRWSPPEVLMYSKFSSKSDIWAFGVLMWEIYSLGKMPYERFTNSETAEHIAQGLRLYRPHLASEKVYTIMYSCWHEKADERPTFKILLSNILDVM
# [3] = biological target: T1, BTK; test: biochemical; details: read-out: BTK inhibition (%), 0.75 uM BTK, […] probe 3l, 15 min preincubation
# [4] = system: primary mouse B cells; test: B-cell response experiment (anti-IgM activation, CD86 by flow cytometry); assay type: cell-based; details: representative FACS plot, concentration not given
# [5] = 0.75 uM BTK, […] probe 3l, 15 min preincubation, BTK inhibition (%)
# [6] = 0.75 uM BTK, […] probe 3l, 15 min preincubation
# Chain of wild-type BTK (Q06187 whole entry): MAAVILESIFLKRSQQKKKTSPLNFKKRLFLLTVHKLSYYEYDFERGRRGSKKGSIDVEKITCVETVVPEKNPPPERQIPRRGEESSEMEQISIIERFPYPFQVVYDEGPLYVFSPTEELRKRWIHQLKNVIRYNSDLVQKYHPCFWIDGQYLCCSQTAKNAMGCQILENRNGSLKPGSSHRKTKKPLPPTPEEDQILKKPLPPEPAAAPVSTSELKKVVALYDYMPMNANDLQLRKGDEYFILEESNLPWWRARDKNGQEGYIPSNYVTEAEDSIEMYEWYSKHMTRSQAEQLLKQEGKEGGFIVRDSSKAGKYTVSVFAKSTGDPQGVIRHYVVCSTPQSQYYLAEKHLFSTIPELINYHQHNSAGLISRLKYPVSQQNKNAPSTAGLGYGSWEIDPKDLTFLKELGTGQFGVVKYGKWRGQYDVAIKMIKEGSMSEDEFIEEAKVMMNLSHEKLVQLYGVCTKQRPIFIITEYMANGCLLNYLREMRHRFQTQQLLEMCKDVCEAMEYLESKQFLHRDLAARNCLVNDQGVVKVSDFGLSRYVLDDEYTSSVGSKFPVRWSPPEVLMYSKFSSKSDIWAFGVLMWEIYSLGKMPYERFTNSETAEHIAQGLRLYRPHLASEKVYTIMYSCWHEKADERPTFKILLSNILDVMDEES
compound,measurement,setting,value
C=C(C)C(=O)N1CCC[C@@H](n2nc(-c3ccc(Oc4ccccc4)cc3)c3c(N)ncnc32)C1 [3a],IC50,[1],12.2 nM
O=c1c(O)c(-c2ccc(O)c(O)c2)oc2cc(O)cc(O)c12 [PCM-0065486],BTK inhibition (%),[2]; [5],39.3%
same,inhibition at 10 µM,[3],48.2%
Cc1cc(C2CCCCC2)n(O)c(=O)c1 [PCM-0086120],BTK inhibition (%),[2]; [5],28%
same,inhibition at 10 µM,[3],39.7%
CNCCc1ccccn1 [PCM-0086123],BTK inhibition (%),[2]; [5],5.4%
same,inhibition at 10 µM,[3],5.5%
COc1cc2nccc(Oc3ccc(NC(=O)C4(C(=O)Nc5ccc(F)cc5)CC4)cc3)c2cc1OC [PCM-0094920],BTK inhibition (%),[2]; [5],123.4%
same,inhibition at 10 µM,[3],86.9%
Cc1cc(Nc2cc(N3CCN(C)CC3)nc(/C=C/c3ccccc3)n2)n[nH]1 [PCM-0095056],BTK inhibition (%),[2]; [5],91%
same,inhibition at 10 µM,[3],85.5%
COc1cc(Nc2ncc(F)c(Nc3ccc4c(n3)NC(=O)C(C)(C)O4)n2)cc(OC)c1OC [PCM-0095093],BTK inhibition (%),[2]; [5],31.7%
same,inhibition at 10 µM,[3],32.4%
CN(c1ncccc1CNc1nc(Nc2ccc3c(c2)CC(=O)N3)ncc1C(F)(F)F)S(C)(=O)=O [PCM-0095340],BTK inhibition (%),[2]; [5],78.6%
same,inhibition at 10 µM,[3],84.8%
CN1CC[C@H](c2c(O)cc(O)c3c(=O)cc(-c4ccccc4Cl)oc23)[C@H](O)C1 [PCM-0095354],BTK inhibition (%),[2]; [5],17.2%
same,inhibition at 10 µM,[3],29.7%
CN(C)[C@@H]1C(=O)C(C(N)=O)=C(O)[C@@]2(O)C(=O)C3=C(O)c4c(O)cccc4[C@@](C)(O)[C@H]3[C@H](O)[C@@H]12 [PCM-0214652],BTK inhibition (%),[2]; [5],33.5%
same,inhibition at 10 µM,[3],35.8%
Cc1ccc(-n2[nH]c(C)c(N=Nc3cccc(-c4cccc(C(=O)O)c4)c3O)c2=O)cc1C [PCM-0214811],BTK inhibition (%),[2]; [5],77%
same,inhibition at 10 µM,[3],80.2%
CCOc1ccccc1OCCN[C@H](C)Cc1ccc(OC)c(S(N)(=O)=O)c1 [PCM-0214853],BTK inhibition (%),[2]; [5],13.2%
same,inhibition at 10 µM,[3],7%
COc1cc2c3cc1Oc1c(OC)c(OC)cc4c1[C@@H](Cc1ccc(O)c(c1)Oc1ccc(cc1)C[C@@H]3N(C)CC2)N(C)CC4 [PCM-0214866],BTK inhibition (%),[2]; [5],17.8%
same,inhibition at 10 µM,[3],21.4%
CC[C@]12C=CCN3CC[C@]4(C(=C(C(=O)OC)C1)Nc1ccccc14)[C@@H]32 [PCM-0215925],BTK inhibition (%),[2]; [5],13.9%
same,inhibition at 10 µM,[3],10.8%
CCNc1nc(Cl)nc(NC(C)C)n1 [PCM-0215964],BTK inhibition (%),[2]; [6],3.9%
C/C(=C\C(=O)OCCCCCCCCC(=O)O)C[C@@H]1OC[C@H](C[C@@H]2O[C@H]2[C@@H](C)[C@H](C)O)[C@@H](O)[C@H]1O [PCM-0215997],BTK inhibition (%),[2]; [5],13.9%
COP(=O)(OC)SCn1c(=O)oc2cc(Cl)cnc21 [PCM-0215999],BTK inhibition (%),[2],-2.3%
COc1ccc(C=O)cc1 [PCM-0216000],BTK inhibition (%),[2]; [6],17%
CC(C)c1ccc(C=O)cc1 [PCM-0216001],BTK inhibition (%),[2]; [6],-18.5%
COc1cc(NS(=O)(=O)c2ccc(N)cc2)nc(OC)n1 [PCM-0216005],BTK inhibition (%),[2]; [5],-11.6%
Cc1cc(C)nc(NS(=O)(=O)c2ccc(N)cc2)n1 [PCM-0216008],BTK inhibition (%),[2]; [5],11.7%
O=C(Nc1ccc(Oc2ccc(Cl)cc2)c(Cl)c1)c1cc(I)cc(I)c1O [PCM-0216018],BTK inhibition (%),[2]; [6],37.1%
c1c2c(cc3c1OCO3)-c1cc3ccc4c(c3c[n+]1CC2)OCO4 [PCM-0216022],BTK inhibition (%),[2]; [6],-46.8%
O=C(O)O [PCM-0216036],BTK inhibition (%),[2]; [5],4.3%
C=C[C@]1(C)C[C@@H](OC(=O)CSCCN(CC)CC)[C@]2(C)[C@H](C)CC[C@]3(CCC(=O)[C@H]32)[C@@H](C)[C@@H]1O [PCM-0216045],BTK inhibition (%),[2]; [5],0%
C[C@@H]1O[C@@H]1P(=O)(O)O [PCM-0216062],BTK inhibition (%),[2]; [5],-39.1%
C=C1[C@H](CO)[C@@H](O)C[C@@H]1n1cnc2c(=O)[nH]c(N)nc21 [PCM-0216093],BTK inhibition (%),[2]; [5],11%
COC(=O)c1ccccc1C(=O)OC [PCM-0216149],BTK inhibition (%),[2]; [6],-9.3%
ClC(Cl)=C(c1ccc(Cl)cc1)c1ccc(Cl)cc1 [PCM-0216164],BTK inhibition (%),[2]; [6],10.8%
c1cc2c(cc1[C@H]1OC[C@H]3[C@@H]1CO[C@H]3c1ccc3c(c1)OCO3)OCO2 [PCM-0216178],BTK inhibition (%),[2]; [6],29.3%
CN1[C@@H]2CC[C@H]1CC(OC(=O)c1c[nH]c3ccccc13)C2 (some centres unmarked) [PCM-0216191],BTK inhibition (%),[2]; [5],-12.4%
CO/N=C(\C(=O)N[C@@H]1C(=O)N2C(C(=O)O)=C(CSC(=O)c3ccco3)CS[C@H]12)c1csc(N)n1 [PCM-0216235],BTK inhibition (%),[2]; [5],0.8%
O=C(O)O [PCM-0216262],BTK inhibition (%),[2]; [5],-6.2%
C/C=C(/C)C(=O)O[C@H]1[C@@H](OC(C)=O)c2c(ccc3ccc(=O)oc23)OC1(C)C [PCM-0216298],BTK inhibition (%),[2]; [5],10%
C[C@H]1CC[C@]2(NC1)O[C@H]1C[C@H]3[C@@H]4CC[C@H]5C[C@@H](O)CC[C@]5(C)[C@H]4CC[C@]3(C)[C@H]1[C@@H]2C [PCM-0216325],BTK inhibition (%),[2]; [6],13.9%
O=c1ccc2c(O)c3ccoc3cc2o1 [PCM-0216332],BTK inhibition (%),[2],-11.6%
CC1=C[C@]23C(=O)[C@@H](C=C(CO)[C@@H](O)[C@]2(O)[C@H]1O)[C@H]1[C@@H](C[C@H]3C)C1(C)C [PCM-0216393],BTK inhibition (%),[2]; [6],-3.1%
COc1cc([C@H]2OC[C@@H]3[C@@H]2CO[C@H]3c2cc(OC)c(O[C@@H]3O[C@H](CO)[C@@H](O)[C@H](O)[C@H]3O)c(OC)c2)cc(OC)c1O[C@@H]1O[C@H](CO)[C@@H](O)[C@H](O)[C@H]1O [PCM-0216398],BTK inhibition (%),[2]; [6],-10%
C/C=C\c1cc(OC)c(OC)cc1OC [PCM-0216406],BTK inhibition (%),[2],-3.9%
CC(C)C1=CC(=O)[C@@](C)([C@H]2[C@H](O)C[C@@]3(C)[C@@H]4CC=C5[C@@H](CC[C@@H](O[C@@H]6OC[C@@H](O)[C@H](O)[C@H]6O[C@@H]6O[C@@H](C)[C@H](O)[C@@H](O)[C@H]6O)C5(C)C)[C@]4(C)C(=O)C[C@]23C)O1 [PCM-0216419],BTK inhibition (%),[2],2.3%
C1CCN2C[C@H]3C[C@H](CN4CCCC[C@@H]34)[C@H]2C1 [PCM-0216422],BTK inhibition (%),[2]; [6],6.9%
C[C@H]1CCC2N(C1)C[C@H]1C3CC4[C@@H](CC(=O)C5C[C@@H](O)CC[C@@]54C)C3CCC1[C@]2(C)O (some centres unmarked) [PCM-0216425],BTK inhibition (%),[2],-17.8%
O=c1ccc2cc3ccoc3c(O)c2o1 [PCM-0216446],BTK inhibition (%),[2]; [6],-6.2%
C[C@H]1CC[C@@H]2N(C1)C[C@H]1[C@@H]3C[C@H]4[C@@H](CC(=O)[C@H]5C[C@@H](O)CC[C@@]54C)[C@@H]3CC[C@H]1[C@]2(C)O [PCM-0216485],BTK inhibition (%),[2],-13.9%
C[C@H]1CC[C@@H]2N(C1)C[C@H]1[C@@H]3C[C@H]4[C@@H](C[C@H](O)[C@H]5C[C@@H](O)CC[C@@]54C)[C@@H]3CC[C@@H]1[C@]2(C)O [PCM-0216522],BTK inhibition (%),[2],-15.4%
C=C[C@]12CN(C)[C@@H]3[C@H]4CO[C@H](C[C@H]41)[C@]1(C(=O)Nc4ccccc41)[C@@H]32 [PCM-0216528],BTK inhibition (%),[2],-0.8%
C/C=C(/C)C(=O)O[C@H]1[C@@H](OC(C)=O)c2c(ccc3ccc(=O)oc23)OC1(C)C [PCM-0216546],BTK inhibition (%),[2]; [5],-14.7%
CCC(=O)NS(=O)(=O)c1ccc(-c2c(-c3ccccc3)noc2C)cc1 [PCM-0216557],BTK inhibition (%),[2]; [5],2.3%
O=C(NC(=O)c1c(F)cccc1F)Nc1ccc(OC(F)(F)C(F)OC(F)(F)F)c(Cl)c1 (centres unmarked) [PCM-0216580],BTK inhibition (%),[2]; [6],22.4%
CCCCC(C#N)(Cn1cncn1)c1ccc(Cl)cc1 (centres unmarked) [PCM-0216598],BTK inhibition (%),[2]; [6],3.1%
COc1ccc(C[C@@H](C)NC[C@H](O)c2ccc(O)c(NC=O)c2)cc1 [PCM-0216637],BTK inhibition (%),[2]; [5],6.9%
C[C@H]1CCCC(=O)CCC/C=C/c2cc(O)cc(O)c2C(=O)O1 [PCM-0216639],BTK inhibition (%),[2],10.8%
CN1C2CC(OC(=O)C(CO)c3ccccc3)CC1C(O)C2 (centres unmarked) [PCM-0216645],BTK inhibition (%),[2]; [6],6.9%
CC[C@H]1OC(=O)[C@H](C)[C@@H](O[C@H]2C[C@@](C)(OC)[C@@H](O)[C@H](C)O2)[C@H](C)[C@@H](O[C@@H]2O[C@H](C)C[C@H](N(C)C)[C@H]2O)[C@](C)(O)C[C@@H](C)CN(C)[C@H](C)[C@@H](O)[C@]1(C)O [PCM-0216649],BTK inhibition (%),[2]; [5],11.7%
"C=CC(=O)N1CCC[C@@H](n2nc(-c3ccc(Oc4ccccc4)cc3)c3c(N)ncnc32)C1 [ibrutinib, reference compound]",B220+ cells-activated (CD86 positive),[4],81.2%
